Consider three molecules from PMC7363588, “Mapping of the FGF14:Nav1.6 complex interface reveals FLPK as a functionally active peptide modulating excitability” (Physiological Reports, 2020).

Peptide text beside a SMILES is read from it.

The target in this experiment is T1, Nav1.6 C-terminal tail (Homo sapiens, UniProt Q9UQD0).
T1 construct: aa 1756–1939); 6X His (N); made in house; host or cells: E. coli BL21 (DE3) pLys
As to the kind of experiment: SPR binding to Nav1.6 C-terminal tail. The note with it: for koff, dissociation rate constant / kon, association rate constant: CM5, 25°C, 1–100 µM, RU 12,000, N.M. = not measurable; for binding to Nav1.6 C-terminal tail: peptide 1–100 µM. The text has this:
Plasmids used in this study derived from the following clones: human FGF14‐1b isoform (accession number: NM_175929.2) and human Nav1.6 (accession number: NM_014191.3). The CLuc‐FGF14, CD4‐Nav1.6‐NLuc, constructs and the pcDNA3.1 vector (Invitrogen, Carlsbad, CA) were engineered and characterized as previously described (Goetz et al., 2009; Shavkunov et al., 2012,2013,2015; Ali et al., 2016, 2018; Wadsworth et al., 2019). The plasmid pGL3 expressing full length Firefly (Photinus pyralis) luciferase was a gift from Dr. P. Sarkar (Department of Neurology, UTMB). For protein purification studies, cDNAs encoding FGF14‐1b (accession number NP_787125; aa 64–252) or the C‐terminal tail of Nav1.6 (accession number #NP_001171455; aa 1756–1939) were subcloned into suitable pET bacterial expression vectors (pET28a‐FGF14; pET30a‐Nav1.6) with a 6X His‐tag at the N‐terminal site; these plasmids were a gift of Dr. Moosa Mohammadi (NYU, Langone Medical Center). The mutation coding for FGF14^V160A was generated by site‐directed mutagenesis and PCR using FGF14‐1b as a template described previously (Ali et al., 2016). For electrophysiological studies FGF14‐GFP (human) and FGF14‐ΔNT‐GFP (human) were cloned into the GFP plasmid (pQBI‐fC2; Quantum Biotechnology Inc., Montreal, Canada) as previously described.
Upon transformation with corresponding cDNA clones, the recombinant proteins FGF14, FGF14^V160A and Nav1.6 C‐terminal tail were expressed in E. coli BL21 (DE3) pLys (Invitrogen) after induction with 0.1 mM isopropyl thio‐β‐D‐galacto‐pyranoside (IPTG) for 24 hr at 16°C. After induction with IPTG, bacterial cells were harvested and lysed by sonication at 4°C in lysis/binding buffer containing following components (mM): sodium phosphate 10 (prepared from 0.5 M of Na2HPO4 and NaH2PO4) + 3‐cholamidopropyl dimethylammonio 1‐propanesulfonate 0.1% pH 7.0 (for FGF14 proteins) + HEPES 25 + NaCl 150 + glycerol 10% (Nav1.6) pH 7.5 and containing 0.1 mM phenyl methyl sulphonyl fluoride (PMSF). The respective proteins were centrifuged at 18,000 g for 30 min at 4°C. For purification of FGF14 and FGF14^V160A, the supernatant was applied to preequilibrated heparin and the proteins were then eluted with NaCl 0.2–2.0 M in the elution (sodium phosphate 10 mM + NaCl 0.2–2.0 M pH 7.0) buffer. For purification of the Nav1.6 C‐tail, the supernatant was applied first to Ni^2+ NTA column and eluted with imidazole (200 mM). The Nav1.6 C‐tail was further purified using HiTrap QFF‐sepharose column (GE Healthcare Bio‐Sciences, Pittsburgh, PA) with a buffer containing Tris‐HCl 50 mM and eluted with NaCl (10–500 mM) at pH 7.5. Finally, all concentrated proteins were purified on an AKTA FPLC purifier using Superdex 200 Hiload 16 × 60 columns (GE Healthcare Bio‐Sciences) and equilibrated in Tris‐HCl 50 mM + NaCl 150 mM, pH 7.5 (Ali et al., 2016; Scala et al., 2018).
SPR experiments were performed on a Biacore T100 (GE Healthcare Bio‐Sciences, Pittsburgh, PA), and the interaction of FGF14 and Nav1.6 channel toward FLPK, PLEV and EYYV (1–100 µM) were studied at 25°C. To analyze the effects of FLPK, PLEV and EYYV on FGF14^WT (RU 16,000), FGF14^V160A (RU 18,000) and Nav1.6 C‐tail (RU 12,000), the proteins were immobilized on CM5 sensor chip using Acetate 5.5 with Amine Coupling Kit (Biacore GE Healthcare Bio‐Sciences). No protein was coupled to the control flow channel of the chip. Using a flow rate of 50 µl/min, FLPK, PLEV and EYYV (1–100 µM) diluted in HBS‐P^+ buffer were injected over the chip for 180 s, followed by injection of HBS‐P+ for 180 s to monitor dissociation, and finally the chip surface was regenerated with NaCl (200 mM). For each peptide injection, nonspecific responses (buffer only) were subtracted from experimental sensograms/traces prior to data analysis. Maximal equilibrium responses were plotted against peptide concentrations and association rate constant (kon), dissociation rate constatnt (koff) were determined. […]
(In general: SPR reads the build-up and loss of mass on a sensor chip optically.)

T1 sequence (Q9UQD0 1797-1980): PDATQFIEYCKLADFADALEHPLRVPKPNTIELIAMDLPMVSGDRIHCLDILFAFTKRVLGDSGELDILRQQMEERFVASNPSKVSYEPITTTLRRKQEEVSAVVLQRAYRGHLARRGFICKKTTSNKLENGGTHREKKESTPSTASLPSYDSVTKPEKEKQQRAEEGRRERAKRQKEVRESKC

Take `CC(=O)N[C@@H](Cc1ccccc1)C(=O)N[C@@H](CC(C)C)C(=O)N1CCC[C@H]1C(=O)N[C@@H](CCCCN)C(N)=O` [FLPK] (Ac-FLPK-NH2): the “koff, dissociation rate constant” value is “N.M”; the “kon, association rate constant” value was “N.M”; the “binding to Nav1.6 C-terminal tail” value is listed as “no measurable binding”.
“PLEV [tetrapeptide previously designed from FGF14:FGF14 dimer interface; docked with N-terminal acetylation and C-terminal amidation]”: the “koff, dissociation rate constant” value is given as “N.M”; the “kon, association rate constant” value is listed as “N.M”; the “binding to Nav1.6 C-terminal tail” value was “no appreciable affinity to either protein was detected”.
“EYYV [tetrapeptide previously designed from FGF14:FGF14 dimer interface; docked with N-terminal acetylation and C-terminal amidation]”: the “koff, dissociation rate constant” value is listed as “N.M”; the “kon, association rate constant” value is on record as “N.M”; the “binding to Nav1.6 C-terminal tail” value was “no appreciable affinity to either protein was detected”.
